Measured values published in patent US20190275052A1, “COMBINATION THERAPY OF AN HBV CAPSID ASSEMBLY INHIBITOR AND A NUCLEOS(T)IDE ANALOGUE” (Hoffmann-La Roche Inc., priority 2016, published 2019).
Where two headings read alike, the source gives them in different places.

How the values were obtained:
HBV [1] = assay: anti-HBV activity in HBV infected differentiated HepaRG cells (HBV DNA in supernatant by qPCR; checkerboard combination, isobologram model); type: cell-based, HBV (genotype D); details: Hepatitis B virus, 264 h, mean of 3 independent experiments
Description: HepG2.2.15 cells were cultured in DMEM+Glutamax I (Gibco, #21885) supplemented with 10% FBS, 1% Pen/Strep (Gibco, #15140) and G-418 (250 μg/mL) and used for production of infectious HBV (genotype D). 90% confluent cells from three T175 flasks were trypsinized and transferred into one collagen coated hyperflask (550 mL). Once the cells are confluent, medium was changed to DMEM+Glutamax I with 1% DMSO and 2.5% FBS. Once the cells were slightly over confluent, medium was changed to DMEM/F12+Glutamax I (Gibco, #31331) supplemented with MEM non-essential amino acids (6 mL, Gibco, #11140), Pen/Strep (6 mL), sodium pyruvate (6 mL), DMSO (9 mL) and FBS (10 mL) (all per 500 mL medium). Medium was changed every 3 days and supernatants were harvested for 2 weeks. Virus was concentrated from supernatants by PEG precipitation and the titer (genome equivalent (GE)/mL) was determined by qPCR. Briefly, supernatants were mixed with 40% PEG solution at a ratio of 4:1, incubated on a shaker at 4° C. overnight and then centrifuged using 50 mL falcon tubes at 4° C. for one hour at 3724 g (RCF). The supernatant was discarded and the centrifugation step was repeated with new supernatant reusing the tubes until all PEG-precipitated supernatant was processed. The pellets were re-suspended in William's E Medium (Gibco, #22551) at a concentration of 10^7-10^9 genome equivalents (GE) per mL and frozen at −80° C. DNA copy number calculation was based on a standard curve generated from HBV plasmid dilutions with known concentrations.
HepaRG cells (Biopredic International, Saint-Gregoire, France) were cultured in working growth medium (500 mL Willams E Medium with 50 mL HepaRG Growth supplement from Biopredic, 5 mL Glutamax-I (Gibco, #35050) and 5 mL Pen/Strep) for 2 weeks. After 2 weeks medium was changed to differentiation medium containing 1.8% DMSO (500 mL Willams E Medium with 50 mL HepaRG Growth supplement from Biopredic, 5 mL Pen/Strep, 5 mL Glutamax-I and 9 mL DMSO). Medium was changed twice a week up to 2 weeks. Once fully differentiated, cells were trypsinized and seeded into collagenated 96 well plates (50,000 cells/well in 100 μL) in differentiation medium. Cells were cultured at least 5 days in the 96 well plates before they were infected with HBV.
For HBV infection of differentiated HepaRG cells, differentiation medium was removed and new differentiation medium (120 μL/well) containing 4% PEG-8000 and virus stock (20 to 30 GE/cell) was added. Cells were cultured at 37° C. for 16 to 20 h before medium was removed, cells were washed 4 times with PBS and new differentiation medium (120 μL/well) was added.
At day 4 post infection, medium was removed and 100 μL new differentiation medium was added to each well. 3-fold serial dilutions (5 μL compound to 10 μL DMSO) of Drug A and Drug B were prepared in 100% DMSO starting with 15 μL undiluted compound solution (400-fold concentration of highest test concentration). 5 μL of drug A and B dilutions were then added to 990 μL medium (containing 0.8% DMSO) in a 96 deep well plate in a fashion according to the design shown in Table 3. 100 μL thereof were added to the HepaRG cells with a final DMSO concentration of 1.8%. Drug A tested was Compound 6; Drug B tested was Compound 1, Compound 2, Compound 3, Compound 4 or Compound 5. The concentration ranges tested were 1 nM to 0.01 nM for Compound 6, and 300 nM to 0.412 nM for Compound 1 to 5. Medium was replaced by new medium with compound at day 7 post infection and at day 11 post infection cell supernatants were harvested and directly used for HBV DNA extraction or stored at −20° C. Cell viability of the cells was determined using the cell viability assay described below.
HBV DNA from HepaRG cell supernatants was extracted using the MagNA Pure 96 (Roche) robot. 100 μL of the supernatants were mixed in a processing cartridge with 200 μL MagNA Pure 96 external lysis buffer (Roche, Cat. No. 06374913001) and incubated for 10 minutes. […]

HBV [2] = details: HBV infected transgenic or humanized mice; Deres 2003, Brezillon 2011; cited from earlier work
[3] = individual compound alone, from the combination studies, HBV DNA in supernatant day 11 post infection, read-out: EC50 ± SD (n) Drug A

Structure (SMILES)	EC50 (HBV [1]; [3]) [nM]	further results
COC(=O)C1=C(C)NC(c2ncc(F)cc2F)=N[C@H]1c1ccc(F)cc1Cl [Bay 41-4109]		in vivo efficacy (HBV DNA reduction) (HBV [2]): demonstrated in vivo efficacy with HBV DNA reduction
COC(=O)C1=C(CN2CCOC[C@H]2C(=O)O)NC(c2nccs2)=N[C@H]1c1ccc(F)cc1Cl [Compound 1, (S)-4-[(R)-6-(2-Chloro-4-fluoro-phenyl)-5-methoxycarbonyl-2-thiazol-2-yl-3,6-dihydro-pyrimidin-4-ylmethyl]-morpholine-3-carboxylic acid]	19.9	
CCOC(=O)C1=C(CN2CCN3C(=O)N(CC(C)(C)C(=O)O)C[C@@H]3C2)NC(c2nccs2)=N[C@H]1c1cccc(F)c1C [Compound 2, 3-[(8aS)-7-[[(4S)-5-ethoxycarbonyl-4-(3-fluoro-2-methyl-phenyl)-2-thiazol-2-yl-1,4-dihydropyrimidin-6-yl]methyl]-3-oxo-5,6,8,8a-tetrahydro-1H-imidazo[1,5-a]pyrazin-2-yl]-2,2-dimethyl-propanoic acid]	5.8	
C=C1[C@H](CO)[C@@H](O)C[C@@H]1n1cnc2c(=O)[nH]c(N)nc21 [Compound 6, Entecavir, reference compound]		EC50 (HBV [1]; Compound 6 alone, from the combination study with the Drug A of the same row, HBV DNA day 11 post infection, read-out: EC50 ± SD (n) Drug B): 0.07 nM

More lines, main results first:

EC50 (HBV [1]; [3]) [nM]	Structure (SMILES)	further results
24.8	COC(=O)C1=C(CN2CCN3C(=O)N(CC(C)(C)C(=O)O)CC3C2)NC(c2nccs2)=N[C@H]1c1ccc(F)cc1Cl (stereo in doubt) [Compound 5, 3-[(8aS)-7-[[(4R)-4-(2-chloro-4-fluoro-phenyl)-5-methoxycarbonyl-2-thiazol-2-yl-1,4-dihydropyrimidin-6-yl]methyl]-3-oxo-5,6,8,8a-tetrahydro-1H-imidazo[1,5-a]pyrazin-2-yl]-2,2-dimethyl-propanoic acid]	
7.5	CCOC(=O)C1=C(CN2CCN3C(=O)N(CC(C)(C)C(=O)O)C[C@@H]3C2)NC(c2nccs2)=N[C@H]1c1cccc(F)c1Cl [Compound 3, 3-[(8aS)-7-[[(4R)-4-(2-chloro-3-fluoro-phenyl)-5-ethoxycarbonyl-2-thiazol-2-yl-1,4-dihydropyrimidin-6-yl]methyl]-3-oxo-5,6,8,8a-tetrahydro-1H-imidazo[1,5-a]pyrazin-2-yl]-2,2-dimethyl-propanoic acid]	
16.2	COC(=O)C1=C(CN2CCN3C(=O)N(CC(C)(C)CC(=O)O)C[C@@H]3C2)NC(c2nccs2)=N[C@H]1c1ccc(F)cc1Cl [Compound 4, 4-[(8aS)-7-[[(4R)-4-(2-chloro-4-fluoro-phenyl)-5-methoxycarbonyl-2-thiazol-2-yl-1,4-dihydropyrimidin-6-yl]methyl]-3-oxo-5,6,8,8a-tetrahydro-1H-imidazo[1,5-a]pyrazin-2-yl]-3,3-dimethyl-butanoic acid]	
